Assay results taken from patent US20170188606A1, “COMPOUNDS, COMPOSITIONS, AND METHODS FOR REDUCING OR E[…] TASTE” (Chromocell Corporation, priority 2014, published 2017).

Tests used:
[1] = tested on: bitterness of 500 ppm RebA; assay: Discrimination testing with sureness (Latin square 2-AFC) and R-index analysis, aqueous RebA; assay type: in vivo, Humans; conditions: 5 ppm in 500 ppm RebA, Discrim. Sureness, N 34, vs control
Excerpt: The discrimination testing with sureness extends the simple yes/no task of discrimination test in a signal detection procedure to include a sureness rating scale. The discrimination test principle is based on two alternative forced choice (2-AFC) manner, in this methodology, panelists are presented with multiple samples, in which one sample is a control, and the other sampled are test variants. A blind control is included in the test variants along with a known control. Panelists are asked to first discriminate between the known control and a variant by identifying which the sample is less bitter. Second, panelists rate their sureness of their response (e.g., sure, unsure, or guess).
To minimize bias and prevent panelist expectation of sample order, a Latin square randomization design is utilized. The samples within a set will be randomized and the sets are randomized via Latin square. The number of presentations is equally distributed. Each of the test samples is evaluated against a negative control sample to calculate R-index score and associated p-value. […] R-index is utilized to indicate the degree of difference between the test and the control sample. […]
The blocker candidates were evaluated in a “sip and spit” format using this methodology and analysis and were the results of at least 30 observations (e.g., 15 panelists and 2 replications or 10 panelists 3 replications).

[2] = tested on: bitter taste in grape-flavored cough syrup (Robitussin Cough and Cold CF); assay: Cough syrup 2-AFC analysis (Example 3); assay type: in vivo, Humans; conditions: 0.1 ppm in cough syrup; testers n=7
Description: (§1) Compound 1 was screened for a reduction of bitter taste due to a bitter tastant in children's grape flavored cough syrup (Robitussin Cough and Cold CF™, Lot #: R10494, Exp. 07/15). Compound 1 was solubilized in […] (PG), dosed into the cough syrup, and placed in 3 mL amounts in sample vials. Control samples contained an equal amount of PG to samples containing Compound 1. Testers (n=7) were asked to use a plastic transfer pipette for tasting, rinsing with water between samples and choosing the less bitter sample via the two alternative forced choice (2-AFC) method.

[3] = tested on: bitter taste in grape-flavored cough syrup (Robitussin Cough and Cold CF); assay: Cough syrup 2-AFC analysis with 50 ppb and 100 ppb (Example 4); assay type: in vivo, Humans; conditions: for Cmpd. Chosen Overall: chosen as less bitter, n=11
Description: as §1, with “2.5” for “3”, “vials to afford 50 ppb or 100 ppb Compound 1 in the samples.” for “vials.”, “(n=11)” for “(n=7)”

sweetness perception = assay: Inherent sweetness assessment using 2-AFC method vs 1.5% sucrose; assay type: in vivo, human; conditions: for % correct: % needed 67%; for x (choosing Sample 1 as sweeter): n 36
Description: Sucrose solutions were prepared by adding sucrose to water to achieve the desired concentrations. Compounds were first prepared as 250-fold concentrated stocks in a 50% ethanol (200 proof), 50% water solution. These concentrated stocks were then diluted in water to achieve a final ethanol concentration of 0.2%. The control solutions were also normalized to 0.2% ethanol.
Compound 1 was evaluated in an aqueous solution for sweetness perception in a 2-AFC test. This test was a double-blinded, randomized study where taste panelists evaluate a pair of solutions one at a time for sweetness. Panelists were instructed not to eat or drink (except water) for at least one hour before the test. During the test, panelists were instructed to sip each sample, swirl it around their mouth and then expectorate. After tasting each sample in the pair, panelists were instructed to record the sample that is “sweeter” in taste. Panelists cleansed their palates by rinsing with water, eating a cracker and waiting for an interval of about 5 minutes. Each pair was tasted twice. All samples were tasted at ambient temperatures. Compound 1 (at various concentrations) was evaluated in comparison to the control, 1.5% sucrose. The flavor and extract manufacturers association (FEMA) characterizes any compound that has a sweetness intensity greater than that of 1.5% in a water base as inherently sweet.
Control Sample (Sample 1): 1.5% sucrose in water
Test Samples (Sample 2): • 10 μg/mL (10 ppm) Compound 1 in 0.2% ethanol in water • 2 μg/mL (2 ppm) Compound 1 in 0.2% ethanol in water • 0.5 μg/mL (500 ppb) Compound 1 in 0.2% ethanol in water
Eighteen subjects completed two replicates of a 2-AFC test for sweetness. Thirty three responses indicated the Control Sample was sweeter for each of the test samples evaluated. Three responses indicated the Test Sample was sweeter for each of the test samples evaluated. Using a beta binomial distribution, p=0.000 (two-sided alternative).

[4] = tested on: bitter taste of Orange VitaminWater (Stevia Leaf Extract, rebaudioside A); assay: Descriptive analysis (DA) panel taste test, Orange VitaminWater
[5] = tested on: bitter taste of rebaudioside A; assay: Descriptive analysis (DA) panel taste test, aqueous rebaudioside A
[6] = tested on: bitter taste receptor (T2R); conditions: Compound 1 3.2 mM in the absence of rebaudioside A; vs vehicle control
Description: Both the rebaudioside A and Compound 1 solutions were prepared in a standard HEPES buffer solution. Rebaudioside A was evaluated at a concentration of 825 μM and Compound 1 was evaluated at 3.2 mM (in the presence and absence of 825 μM rebaudioside A) and compared to vehicle control (HEPES buffer solution). Cells were incubated with a calcium responsive dye for one hour at 37 C and then exposed to rebaudioside A, Compound 1 (in the presence and absence of 825 μM rebaudioside A) and vehicle control. Change in fluorescence prior to compound addition and after compound addition was monitored for five minutes using a Hamamatsu Functional Drug Screening System (FDSS) 6000. The difference in fluorescence response over vehicle control was calculated using maximal cellular responses for each compound.

[7] = Compound 1 @ 0.5 μg/mL in water vs 1.5% sucrose
[8] = Compound 1 @ 2 μg/mL in water vs 1.5% sucrose
[9] = Compound 1 @ 10 μg/mL in water vs 1.5% sucrose
[10] = Panel A, Orange Vitamin Water Zero + Compound 1 @5 ppm, 15 cm scale
[11] = Panel B, fully solubilized, Orange VitaminWater (head: 500 ppm Reb-A) + Compound1 @0.25 ppm, 0.2% ethanol
[12] = Panel A, 500 ppm RebA + Compound 1 @7.5 ppm in water, 15 cm scale
[13] = Panel B, fully solubilized, 500 ppm Reb-A + Compound 1 @0.3 ppm, aqueous, 0.2% ethanol

Structure (SMILES): CN[C@@H](Cc1c[nH]c2ccccc12)C(=O)O [Compound 1, N-methyl-L-tryptophan]
- R-index [1]: 63.3%
- Compound Chosen as Less Bitter [2]: 5
- Control Chosen as Less Bitter [2]: 1
- No Choice Made [2]: 1
- Chosen if 1st in Pair ([3]; 50 ppb in cough syrup): 5/6
- Chosen if 2nd in Pair ([3]; 50 ppb in cough syrup): 2/5
- Chosen in 1st Pair ([3]; 50 ppb in cough syrup): 5/6
- Chosen in 2nd Pair ([3]; 50 ppb in cough syrup): 2/5
- Cmpd. Chosen Overall ([3]; 50 ppb in cough syrup): 7/11
- Chosen if 1st in Pair ([3]; 100 ppb in cough syrup): 4/5
- Chosen if 2nd in Pair ([3]; 100 ppb in cough syrup): 3/6
- Chosen in 1st Pair ([3]; 100 ppb in cough syrup): 3/5
- Chosen in 2nd Pair ([3]; 100 ppb in cough syrup): 4/6
- Cmpd. Chosen Overall ([3]; 100 ppb in cough syrup): 7/11
- d′ (sweetness perception; [7]): 1.956
- % correct (sweetness perception; [7]): 92%
- x (choosing Sample 1 as sweeter) (sweetness perception; [7]): 33
- d′ (sweetness perception; [8]): 1.956
- % correct (sweetness perception; [8]): 92%
- x (choosing Sample 1 as sweeter) (sweetness perception; [8]): 33
- d′ (sweetness perception; [9]): 1.956
- % correct (sweetness perception; [9]): 92%
- x (choosing Sample 1 as sweeter) (sweetness perception; [9]): 33
- inherent sweetness (sweetness perception; concentrations up to 10 μg/mL (10 ppm), 0.2% ethanol in water, vs 1.5% sucrose): do not elicit inherent sweetness
- Bit Aft [4, 10]: 2.94
- Bitter [4, 10]: 4.97
- HPB [4, 10]: 6.83
- Licorice [4, 10]: 2.74
- Swt Aft [4, 10]: 3.89
- Swt Linger [4, 10]: 1.99
- Bitter [4, 11]: 3.9
- HPB [4, 11]: 5.4
- Bitter [5, 12]: 5.32
- Bitter Aft [5, 12]: 3.18
- HPB [5, 12]: 7.70
- Licorice [5, 12]: 6.58
- Sweet Aft [5, 12]: 4.71
- Sweet Linger [5, 12]: 2.55
- Bitter [5, 13]: 3.4
- Bitter Aft [5, 13]: 1.6
- HPB [5, 13]: 5
- fluorescent response from Compound 1 on its own [6]: not significantly different from vehicle control
